Among the data in PubChem BioAssay AID192 (DTP/NCI, 2004) are T/C values, retold here.

Where “and” joins values, the source holds several entries; their conditions need not be identical. Equal values may be shown once. Toxic doses and inconclusive results are not listed.

This assay has as its system BDF1 mice, B16 melanoma ip, median survival T/C. The experiment in a line: NCI In Vivo Anticancer Drug Screen. Data for tumor model B16 Melanoma (intraperitoneal) in B6D2F1 (BDF1) mice. Particulars: endpoint: median survival time, higher = longer survival. Put shortly: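 Mice with transplantable tumors; drug vs vehicle groups; endpoint survival or tumor size; value = T/C.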

Setting [1] is: dose: 100.0 mg/kg/injection, schedule: Q01DX009 (ip), vehicle: saline with Tween-80.
[2] abbreviates: dose: 200.0 mg/kg/injection, schedule: Q01DX009 (ip), vehicle: saline with Tween-80.
Where [3] appears, read: dose: 6.25 mg/kg/injection, schedule: Q01DX009 (ip), vehicle: saline.
[4] abbreviates: dose: 12.5 mg/kg/injection, schedule: Q01DX009 (ip), vehicle: saline.
Where [5] appears, read: dose: 25.0 mg/kg/injection, schedule: Q01DX009 (ip), vehicle: Klucel (hydroxypropylcellulose) (HPC).
Setting [6] is: dose: 25.0 mg/kg/injection, schedule: Q01DX009 (ip), vehicle: saline.
[7] abbreviates: dose: 50.0 mg/kg/injection, schedule: Q01DX009 (ip), vehicle: Klucel (hydroxypropylcellulose) (HPC).
Where [8] appears, read: dose: 50.0 mg/kg/injection, schedule: Q01DX009 (ip), vehicle: saline with Tween-80.
[9] abbreviates: dose: 400.0 mg/kg/injection, schedule: Q01DX009 (ip), vehicle: saline with Tween-80.

As to `CCCCNC(=O)Nc1ccc(C(=O)OCC(C)C)cc1`, the T/C by setting is: under setting [1], 99 % of control; under setting [2], 96 % of control.

In the case of `CNCCCN1c2ccccc2CCc2ccccc21`, the T/C was 105 % of control (dose: 3.12 mg/kg/injection, schedule: Q01DX009 (ip), vehicle: saline); 106 % of control (dose: 6.25 mg/kg/injection, schedule: Q01DX009 (ip), vehicle: Klucel (hydroxypropylcellulose) (HPC)); 96 % of control under setting [3]; 101 % of control (dose: 12.5 mg/kg/injection, schedule: Q01DX009 (ip), vehicle: Klucel (hydroxypropylcellulose) (HPC)); 102 % of control under setting [4]; 100 % of control under setting [5]. Also, the T/C was 87 % of control under setting [6]; 86 % of control under setting [7]; 101 % of control (dose: 50.0 mg/kg/injection, schedule: Q01DX009 (ip), vehicle: saline).

As for `CC[C@]1(O)C[C@H]2CN(CCc3c([nH]c4ccccc34)[C@@](C(=O)OC)(c3cc4c(cc3OC)N(C)[C@H]3[C@@](O)(C(=O)OC)[C@H](OC(C)=O)[C@]5(CC)C=CCN6CC[C@]43[C@@H]65)C2)C1`, the T/C reads like this: (dose: 0.03 mg/kg/injection, schedule: Q01DX009 (ip), vehicle: saline) 152 % of control; (dose: 0.05 mg/kg/injection, schedule: Q01DX009 (ip), vehicle: saline) 161 % of control; (dose: 0.06 mg/kg/injection, schedule: Q01DX009 (ip), vehicle: water) 165 % of control; (dose: 0.1 mg/kg/injection, schedule: Q01DX009 (ip), vehicle: saline) 152 % of control and 155 % of control; (dose: 0.12 mg/kg/injection, schedule: Q01DX009 (ip), vehicle: water) 110 % of control; (dose: 0.2 mg/kg/injection, schedule: Q01DX009 (ip), vehicle: saline) 186 % of control and 189 % of control. Besides, the T/C (dose: 0.22 mg/kg/injection, schedule: Q01DX009 (ip), vehicle: saline) was 196 % of control; the T/C (dose: 0.22 mg/kg/injection, schedule: Q01DX009 (ip), vehicle: water) was 197 % of control; the T/C (dose: 0.25 mg/kg/injection, schedule: Q01DX009 (ip), vehicle: water) is 163 % of control and 216 % of control; the T/C (dose: 0.36 mg/kg/injection, schedule: Q01DX009 (ip), vehicle: saline) was 240 % of control; the T/C (dose: 0.36 mg/kg/injection, schedule: Q01DX009 (ip), vehicle: water) is 181 % of control; the T/C (dose: 0.39 mg/kg/injection, schedule: Q04DX003 (ip), vehicle: saline) was 162 % of control. Further, the T/C is 219 % of control (dose: 0.4 mg/kg/injection, schedule: Q01DX009 (ip), vehicle: saline); 154 % of control (dose: 0.5 mg/kg/injection, schedule: Q04DX003 (ip), vehicle: saline); 250 % of control (dose: 0.6 mg/kg/injection, schedule: Q01DX009 (ip), vehicle: saline); 151 % of control (dose: 0.63 mg/kg/injection, schedule: Q04DX003 (ip), vehicle: saline); 164 % of control (dose: 0.65 mg/kg/injection, schedule: Q04DX003 (ip), vehicle: saline); 260 % of control and 299 % of control (dose: 0.8 mg/kg/injection, schedule: Q01DX009 (ip), vehicle: saline). Also, the T/C by setting is: (dose: 0.8 mg/kg/injection, schedule: Q04DX003 (ip), vehicle: water) 161 % of control; (dose: 1.0 mg/kg/injection, schedule: Q04DX003 (ip), vehicle: saline) 170 % of control; (dose: 1.08 mg/kg/injection, schedule: Q04DX003 (ip), vehicle: saline) 201 % of control; (dose: 1.44 mg/kg/injection, schedule: Q04DX003 (ip), vehicle: water) 190 % of control; (dose: 1.8 mg/kg/injection, schedule: Q04DX003 (ip), vehicle: saline) 206 % of control; (dose: 2.0 mg/kg/injection, schedule: Q04DX003 (ip), vehicle: saline) 212 % of control. Also, the T/C reads like this: (dose: 2.4 mg/kg/injection, schedule: Q04DX003 (ip), vehicle: water) 221 % of control; (dose: 2.5 mg/kg/injection, schedule: Q04DX003 (ip), vehicle: saline) 189 % of control; (dose: 3.2 mg/kg/injection, schedule: Q04DX003 (ip), vehicle: water) 224 % of control; (dose: 4.0 mg/kg/injection, schedule: Q04DX003 (ip), vehicle: saline) 254 % of control; (dose: 4.8 mg/kg/injection, schedule: Q01DX001 (ip), vehicle: water) 158 % of control; (dose: 216.0 micrograms/kg/injection, schedule: Q01DX009 (ip), vehicle: saline) 197 % of control. Besides, the T/C runs as follows: (dose: 360.0 micrograms/kg/injection, schedule: Q01DX009 (ip), vehicle: water) 155 % of control; (dose: 389.0 micrograms/kg/injection, schedule: Q04DX003 (ip), vehicle: saline) 158 % of control and 163 % of control; (dose: 600.0 micrograms/kg/injection, schedule: Q01DX009 (ip), vehicle: saline) 216 % of control; (dose: 648.0 micrograms/kg/injection, schedule: Q04DX003 (ip), vehicle: saline) 152 % of control and 171 % of control and 197 % of control; (dose: 1080.0 micrograms/kg/injection, schedule: Q04DX003 (ip), vehicle: saline) 198 % of control; (dose: 1800.0 micrograms/kg/injection, schedule: Q04DX003 (ip), vehicle: saline) 203 % of control and 230 % of control. In addition, where the note is “dose: 3000.0 micrograms/kg/injection, schedule: Q04DX003 (ip), vehicle: saline”, the T/C is 213 % of control and 267 % of control.

Regarding `CC(CCCN(CCCl)CCCl)Nc1ccnc2cc(Cl)ccc12` (stereo not drawn), the T/C by setting is: (dose: 0.25 mg/kg/injection, schedule: Q01DX009 (ip), vehicle: saline + alcohol) 94 % of control; (dose: 0.25 mg/kg/injection, schedule: Q04DX003 (ip), vehicle: saline + alcohol) 100 % of control; (dose: 0.5 mg/kg/injection, schedule: Q01DX009 (ip), vehicle: saline + alcohol) 94 % of control; (dose: 0.5 mg/kg/injection, schedule: Q04DX003 (ip), vehicle: saline + alcohol) 106 % of control; (dose: 1.0 mg/kg/injection, schedule: Q01DX009 (ip), vehicle: saline + alcohol) 97 % of control; (dose: 1.0 mg/kg/injection, schedule: Q04DX003 (ip), vehicle: saline + alcohol) 112 % of control. Also, the T/C runs as follows: (dose: 2.0 mg/kg/injection, schedule: Q01DX009 (ip), vehicle: saline + alcohol) 88 % of control; (dose: 2.0 mg/kg/injection, schedule: Q04DX003 (ip), vehicle: saline + alcohol) 118 % of control.

For the compound `N=C1SCc2ccc3ccccc3c21`, the T/C is 99 % of control under setting [8], 97 % of control under setting [1], 91 % of control under setting [2] and 89 % of control under setting [9].

In the case of `CC(C)CC(NC(=O)OCc1ccccc1)C(=O)NC(Cc1c[nH]c2ccccc12)C(=O)O` (stereo not drawn), the T/C is 90 % of control under setting [8], 96 % of control under setting [1], 96 % of control under setting [2] and 98 % of control under setting [9].

For the compound `Cc1ccc(S(=O)(=O)NC(=O)C2C(=O)CC3(CCCCC3)CC2=O)cc1`, the T/C is, setting by setting: under setting [5], 97 % of control; under setting [7], 100 % of control and 111 % of control; (dose: 100.0 mg/kg/injection, schedule: Q01DX009 (ip), vehicle: Klucel (hydroxypropylcellulose) (HPC)) 96 % of control and 113 % of control; (dose: 200.0 mg/kg/injection, schedule: Q01DX009 (ip), vehicle: Klucel (hydroxypropylcellulose) (HPC)) 94 % of control.

`N#CCCSC(=S)C1CCCC1=N` (stereo not drawn): the T/C by setting is: (dose: 12.5 mg/kg/injection, schedule: Q01DX009 (ip), vehicle: saline with Tween-80) 112 % of control; (dose: 25.0 mg/kg/injection, schedule: Q01DX009 (ip), vehicle: saline with Tween-80) 106 % of control; under setting [8], 103 % of control; under setting [1], 103 % of control; under setting [2], 108 % of control.

As to `NCC(=O)NCC(=O)NC(Cc1ccc(O)cc1)C(=O)O` (stereo not drawn), the T/C reads like this: under setting [8], 104 % of control; under setting [1], 94 % of control; under setting [2], 102 % of control; under setting [9], 95 % of control.

For the compound `COC(=O)C1(N)CCCC1`, the T/C runs as follows: under setting [3], 105 % of control and 110 % of control; under setting [4], 108 % of control and 109 % of control and 122 % of control; under setting [6], 121 % of control and 123 % of control.

Turning to `c1ccc(-c2nc3cnccc3o2)cc1`, the T/C is 91 % of control (dose: 3.13 mg/kg/injection, schedule: Q04DX003 (ip), vehicle: Klucel (hydroxypropylcellulose) (HPC)); 100 % of control (dose: 6.25 mg/kg/injection, schedule: Q04DX003 (ip), vehicle: Klucel (hydroxypropylcellulose) (HPC)); 91 % of control and 97 % of control (dose: 12.5 mg/kg/injection, schedule: Q04DX003 (ip), vehicle: Klucel (hydroxypropylcellulose) (HPC)).
